Tests used:
[1] = Single dose oral pharmacokinetic study; type: in vivo; conditions: mouse, Mice oral PK @30 mg/kg, plasma, vehicle 10% Solutol+20% PEG; for AUC(0-t): read-out: AUC0-t; for Cmax: read-out: Cmax
Protocol: The test item was administered through oral route to animals (rat/mice) at 30 mg/kg dose in a suitable vehicle (10% Solutol+20% PEG) at 10 ml/kg dose volume. Blood samples (˜50 μL at each time point) were collected from retro-orbital plexus using K3 EDTA as anticoagulant in eppendorf tubes at defined time intervals 30 minutes, 1 hour, 2 hour, 4 hour, 8 hour, 24 hour & 48 hour under light ether anaesthesia. The samples were centrifuged at 3500×g to separate plasma and stored at −80° C. until analysis. Plasma 25 μl for Mice were processed as per described in sample preparation.
Standard solutions of the test compound 1 mg/mL solutions were prepared in DMSO and further dilutions were made in methanol. […] To the test compound plasma extraction was carried out using Acetonitrile precipitation. After reconstitution with solvent (50% Acetonitrile in Buffer) samples were analyzed by LCMSMS to get the concentrations to calculate PK Parameters.

[2] = Cyto-toxicity (MTT assay); type: cell-based

Row | Structure (SMILES) | AUC(0-t) [1] | Cmax [1] | viability at 4 days, 0.01 µM [2] | viability at 4 days, 0.1 µM [2] | viability at 4 days, 1 µM [2] | viability at 4 days, 0.001 µM [2] | viability at 4 days, 0.003 µM [2]
1 | CC(C)C1=C2[C@H]3CC[C@@H]4[C@@]5(C)CC[C@H](OC(=O)[C@H]6C[C@@H](C(=O)O)C6(C)C)C(C)(C)[C@@H]5CC[C@@]4(C)[C@]3(C)CC[C@@]2(NC(=O)C2(NC(=O)c3ccc(Cl)cc3)CCC2)CC1=O [Example 42, (1R,3S)-3-((((3aR,5aR,5bR,7aR,9S,11aR,11bR,13aS)-3a-(1-(4-chlorobenzamido)cyclobutane-1-carboxamido)-1-isopropyl-5a,5b,8,8,11a-pentamethyl-2-oxo-3,3a,4,5,5a,5b,6,7,7a,8,9,10,11,11a,11b,12,13,13a-octadecahydro-2H-cyclopenta[a]chrysen-9-yl)oxy)carbonyl)-2,2-dimethylcyclobutane-1-carboxylic acid] | 481 µg·h/mL | 22900 ng/mL | 27% | 5% | 4% | – | –
2 | Cc1ccc(C(=O)NC2(C(=O)N[C@@]34CC[C@]5(C)[C@H](CC[C@@H]6[C@@]7(C)CC[C@H](OC(=O)[C@H]8C[C@@H](C(=O)O)C8(C)C)C(C)(C)[C@@H]7CC[C@]65C)C3=C(C(C)C)C(=O)C4)CCCC2)cn1 [Example 47, (1R,3S)-3-((((3aR,5aR,5bR,7aR,9S,11aR,11bR,13aS)-1-isopropyl-5a,5b,8,8,11a-pentamethyl-3a-(1-(6-methylnicotinamido)cyclopentane-1-carboxamido)-2-oxo-3,3a,4,5,5a,5b,6,7,7a,8,9,10,11,11a,11b,12,13,13a-octadecahydro-2H-cyclopenta[a]chrysen-9-yl)oxy)carbonyl)-2,2-dimethylcyclobutane-1-carboxylic acid] | 538 µg·h/mL | 23600 ng/mL | 75% | 14% | 4% | – | –
3 | CC(C)C1=C2[C@H]3CC[C@@H]4[C@@]5(C)CC[C@H](OC(=O)[C@H]6C[C@@H](C(=O)O)C6(C)C)C(C)(C)[C@@H]5CC[C@@]4(C)[C@]3(C)CC[C@@]2(NC(=O)C(C)(C)NC(=O)c2ccc(N3CCOCC3)cc2)CC1=O [Example 18, (1R,3S)-3-((((3aR,5aR,5bR,7aR,9S,11aR,11bR,13aS)-1-isopropyl-5a,5b,8,8,11a-pentamethyl-3a-(2-methyl-2-(4-morpholinobenzamido)propanamido)-2-oxo-3,3a,4,5,5a,5b,6,7,7a,8,9,10,11,11a,11b,12,13,13a-octadecahydro-2H-cyclopenta[a]chrysen-9-yl)oxy)carbonyl)-2,2-dimethylcyclobutane-1-carboxylic acid] | 236 µg·h/mL | 15900 ng/mL | 29% | – | – | 78% | 61%
4 | CC(C)C1=C2[C@H]3CC[C@@H]4[C@@]5(C)CC[C@H](OC(=O)[C@H]6C[C@@H](C(=O)O)C6(C)C)C(C)(C)[C@@H]5CC[C@@]4(C)[C@]3(C)CC[C@@]2(NC(=O)C(C)(C)NC(=O)c2cnccn2)CC1=O [Example 5, (1R,3S)-3-((((3aR,5aR,5bR,7aR,9S,11aR,11bR,13aS)-1-isopropyl-5a,5b,8,8,11a-pentamethyl-3a-(2-methyl-2-(pyrazine-2-carboxamido)propanamido)-2-oxo-3,3a,4,5,5a,5b,6,7,7a,8,9,10,11,11a,11b,12,13,13a-octadecahydro-2H-cyclopenta[a]chrysen-9-yl)oxy)carbonyl)-2,2-dimethylcyclobutane-1-carboxylic acid] | 289 µg·h/mL | 26000 ng/mL | 74% | 35% | 4% | – | –
5 | Cc1ccc(C(=O)NC(C)(C)C(=O)N[C@@]23CC[C@]4(C)[C@H](CC[C@@H]5[C@@]6(C)CC[C@H](OC(=O)[C@H]7C[C@@H](C(=O)O)C7(C)C)C(C)(C)[C@@H]6CC[C@]54C)C2=C(C(C)C)C(=O)C3)cc1 [Example 23, (1R,3S)-3-((((3aR,5aR,5bR,7aR,9S,11aR,11bR,13aS)-1-isopropyl-5a,5b,8,8,11a-pentamethyl-3a-(2-methyl-2-(4-methylbenzamido)propanamido)-2-oxo-3,3a,4,5,5a,5b,6,7,7a,8,9,10,11,11a,11b,12,13,13a-octadecahydro-2H-cyclopenta[a]chrysen-9-yl)oxy)carbonyl)-2,2-dimethylcyclobutane-1-carboxylic acid] | 590 µg·h/mL | 29700 ng/mL | 34% | 8% | 4% | – | –
6 | Cc1ccc(-c2nc3cc(C(=O)NC(C)(C)C(=O)N[C@@]45CC[C@]6(C)[C@H](CC[C@@H]7[C@@]8(C)CC[C@H](OC(=O)[C@H]9C[C@@H](C(=O)O)C9(C)C)C(C)(C)[C@@H]8CC[C@]76C)C4=C(C(C)C)C(=O)C5)ccc3[nH]2)cn1 [Example 13, (1R,3S)-3-((((3aR,5aR,5bR,7aR,9S,11aR,11bR,13aS)-1-isopropyl-5a,5b,8,8,11a-pentamethyl-3a-(2-methyl-2-(2-(6-methylpyridin-3-yl)-1H-benzo[d]imidazole-5-carboxamido)propanamido)-2-oxo-3,3a,4,5,5a,5b,6,7,7a,8,9,10,11,11a,11b,12, 13,13a-octadecahydro-2H-cyclopenta[a]chrysen-9-yl)oxy)carbonyl)-2,2-dimethylcyclobutane-1-carboxylic acid] | 18.2 µg·h/mL | 2720 ng/mL | 45% | 10% | 4% | – | –
7 | Cc1nc(C)c(C(=O)NC(C)(C)C(=O)N[C@@]23CC[C@]4(C)[C@H](CC[C@@H]5[C@@]6(C)CC[C@H](OC(=O)[C@H]7C[C@@H](C(=O)O)C7(C)C)C(C)(C)[C@@H]6CC[C@]54C)C2=C(C(C)C)C(=O)C3)s1 [Example 14, (1R,3S)-3-((((3aR,5aR,5bR,7aR,9S,11aR,11bR,13aS)-3a-(2-(2,4-dimethylthiazole-5-carboxamido)-2-methylpropanamido)-1-isopropyl-5a,5b,8,8,11a-pentamethyl-2-oxo-3,3a,4,5,5a,5b,6,7,7a,8,9,10,11,11a,11b,12,13,13a-octadecahydro-2H-cyclopenta[a]chrysen-9-yl)oxy)carbonyl)-2,2-dimethylcyclobutane-1-carboxylic acid] | 377 µg·h/mL | 26800 ng/mL | 44% | 8% | 2% | – | –
8 | CC(C)C1=C2[C@H]3CC[C@@H]4[C@@]5(C)CC[C@H](OC(=O)[C@H]6C[C@@H](C(=O)O)C6(C)C)C(C)(C)[C@@H]5CC[C@@]4(C)[C@]3(C)CC[C@@]2(NC(=O)C(C)(C)NC(=O)CN2CCCCC2)CC1=O [Example 10, (1R,3S)-3-((((3aR,5aR,5bR,7aR,9S,11aR,11bR,13aS)-1-isopropyl-5a,5b,8,8,11a-pentamethyl-3a-(2-methyl-2-(2-(piperidin-1-yl)acetamido)propan amido)-2-oxo-3,3a,4,5,5a,5b,6,7,7a,8,9,10,11,11a,11b,12,13,13a-octadecahydro-2H-cyclopenta[a]chrysen-9-yl)oxy)carbonyl)-2,2-dimethylcyclobutane-1-carboxylic acid] | 69.8 µg·h/mL | 9790 ng/mL | 67% | 1% | 0% | – | –
9 | CCOC(=O)NC(C)(C)C(=O)N[C@@]12CC[C@]3(C)[C@H](CC[C@@H]4[C@@]5(C)CC[C@H](OC(=O)[C@H]6C[C@@H](C(=O)O)C6(C)C)C(C)(C)[C@@H]5CC[C@]43C)C1=C(C(C)C)C(=O)C2 [Example 64, (1R,3S)-3-((((3aR,5aR,5bR,7aR,9S,11aR,11bR,13aS)-3a-(2-((ethoxycarbonyl)amino)-2-methylpropanamido)-1-isopropyl-5a,5b. 8,8,11a-pentamethyl-2-oxo-3,3a,4,5,5a,5b,6,7,7a,8,9,10,11,11a,11b,12,13,13a-octadecahydro-2H-cyclopenta[a]chrysen-9-yl)oxy)carbonyl)-2,2-dimethylcyclobutane-1-carboxylic acid] | 336 µg·h/mL | 27400 ng/mL | 26% | 2% | 1% | – | –
10 | CC(C)C1=C2[C@H]3CC[C@@H]4[C@@]5(C)CC[C@H](OC(=O)[C@H]6C[C@@H](C(=O)O)C6(C)C)C(C)(C)[C@@H]5CC[C@@]4(C)[C@]3(C)CC[C@@]2(NC(=O)C(C)(C)NC(=O)c2ccc(S(C)(=O)=O)cc2)CC1=O [Example 51, (1R,3S)-3-((((3aR,5aR,5bR,7aR,9S,11aR,11bR,13aS)-1-isopropyl-5a,5b,8,8,11a-pentamethyl-3a-(2-methyl-2-(4-(methylsulfonyl)benzamido)propanamido)-2-oxo-3,3a,4,5,5a,5b,6,7,7a,8,9,10,11,11a,11b,12,13,13a-octadecahydro-2H-cyclopenta[a]chrysen-9-yl)oxy)carbonyl)-2,2-dimethylcyclobutane-1-carboxylic acid] | 277 µg·h/mL | 32300 ng/mL | 37% | – | – | 86% | 85%

From patent US20170008921A1, “C-3 NOVEL TRITERPENONE WITH C-28 REVERSE AMIDE DERIVATIVES AS HIV INHIBITORS” (HETERO RESEARCH FOUNDATION, priority 2015, published 2017)
